Measured values from article PMC11188089, “Structural basis for antibiotic transport and inhibition in PepT2, the mammalian proton-coupled peptide transporter” (Research Square, 2024).
Like-named read-outs stand apart in the source and are kept apart here. Values belong to the molecule of their own block, whether it stands above or below them. Where a SMILES comes first, the peptide text is derived from it.

Experiments:
PepT2 [1] = molecular target: T1, PepT2 (Rattus norvegicus, UniProt Q63424); design: gene Slc15a2
T1 sequence (Q63424 1-729): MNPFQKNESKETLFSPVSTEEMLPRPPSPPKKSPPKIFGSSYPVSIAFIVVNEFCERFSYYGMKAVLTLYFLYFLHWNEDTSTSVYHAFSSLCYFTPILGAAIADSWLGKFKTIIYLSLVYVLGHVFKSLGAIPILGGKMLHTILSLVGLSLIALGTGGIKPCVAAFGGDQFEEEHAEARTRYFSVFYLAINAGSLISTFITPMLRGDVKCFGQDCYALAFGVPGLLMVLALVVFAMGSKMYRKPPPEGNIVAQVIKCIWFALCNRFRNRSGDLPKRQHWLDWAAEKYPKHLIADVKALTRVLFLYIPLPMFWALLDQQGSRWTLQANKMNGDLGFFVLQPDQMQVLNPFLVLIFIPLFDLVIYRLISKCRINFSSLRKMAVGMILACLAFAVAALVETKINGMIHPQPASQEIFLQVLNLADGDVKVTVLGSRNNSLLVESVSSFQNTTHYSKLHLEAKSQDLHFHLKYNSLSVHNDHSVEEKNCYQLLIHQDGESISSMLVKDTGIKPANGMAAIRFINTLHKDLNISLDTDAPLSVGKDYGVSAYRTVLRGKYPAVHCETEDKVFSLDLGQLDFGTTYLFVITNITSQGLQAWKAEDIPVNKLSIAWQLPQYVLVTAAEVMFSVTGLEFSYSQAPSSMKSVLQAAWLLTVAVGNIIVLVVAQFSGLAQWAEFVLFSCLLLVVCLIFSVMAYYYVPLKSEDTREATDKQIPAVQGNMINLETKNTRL

PepT2 [2] = molecular target: T1, PepT2; assay: inhibition of ^3H di-alanine uptake in PepT2 proteoliposomes; counterflow; SSM electrophysiology; assay type: biochemical; design: gene Slc15a2; purified rat PepT2 reconstituted into liposomes
[3] = molecular target: Rattus norvegicus PepT2 (SLC15A2), proton-coupled peptide transporter (Rattus norvegicus) (UniProt Q63424)
[4] = molecular target: T2, Rattus norvegicus PepT2 (SLC15A2), proton-coupled peptide transporter (Rattus norvegicus, UniProt Q63424); assay: cryo-EM structure; PepT2 after SEC (5-6 mg/ml, DDM:CHS) mixed with 1 mM antibiotic (cefadroxil, amoxicillin or cloxacillin) for one hour, then 1.2 molar excess of nanobody D8, on ice for at least 30 minutes; details: both partners purified
T2 construct: PepT2 (SLC15A2) from Rattus norvegicus; The extracellular domain (ECD) was in the protein but was not built in the deposited models; For the IC50 assay the same purified protein was reconstituted into POPE:POPG liposomes; The Addgene ids 167988 and 167989 are assigned to PepT2 and the nanobody by the order in the sentence; also called rat PepT2; RnPepT2; not shown: GFP, C-terminal, cleaved; His …

IC50 (PepT2 [1]): 1000 µM
Molecule: Nc1nc(/C(=C/CC(=O)O)C(=O)N[C@@H]2C(=O)N3C(C(=O)O)=CCS[C@H]23)cs1 [ceftibuten]

IC50 for inhibition of the uptake of radioactive (3H) di-alanine into rat PepT2 proteoliposomes [3]: 32 µM
Molecule: di-alanine peptide

Second part, the molecule before the results:

Molecule: C[C@H](N)C(=O)N[C@@H](C)C(=O)O [di-alanine] (H-Ala-Ala-OH)
IC50 (PepT2 [2]): 32 µM

B1: nanobody D8 (inhibitory nanobody against rat PepT2) (VHH)
VHH: QVQLVESGGGLVQPGGSLRLLCVASGRPFNDYDMGWFRQAPGKEREFVASISWSGRVTDYSDSMKGRCTVSRDNAKGTMFLQMSNLVPRDTAVYYCAAARRRWTFKATNTEEFYETWGQGTQVTVSS
notes: the nanobody was resolved in the structures solved here (PDB 9BIR, 9BIS, 9BIT, 9BIU); expression plasmid in Addgene; also called the nanobody
binding result [4]: binds
